Structures are written as SMILES. A value given as a limit tells only on which side of the number the result lay.

The target of assay [1] is Human immunodeficiency virus type 1 integrase (Human immunodeficiency virus 1, UniProt Q7ZJM1). Nature of the assay: Inhibition of strand transfer activity in HIV1 integrase.
Another assay concerns MT4. Briefly: Cytotoxicity against MT4 cells. In kind it is functional. The note with it: Homo sapiens.
Assay [2] deals with Human immunodeficiency virus 1. Nature of the assay: Antiviral activity against HIV1 3B in MT4 cells. Format: functional, organism-based. The note with it: Human immunodeficiency virus 1, 3B.

Sequence of Human immunodeficiency virus type 1 integrase (Q7ZJM1 whole entry): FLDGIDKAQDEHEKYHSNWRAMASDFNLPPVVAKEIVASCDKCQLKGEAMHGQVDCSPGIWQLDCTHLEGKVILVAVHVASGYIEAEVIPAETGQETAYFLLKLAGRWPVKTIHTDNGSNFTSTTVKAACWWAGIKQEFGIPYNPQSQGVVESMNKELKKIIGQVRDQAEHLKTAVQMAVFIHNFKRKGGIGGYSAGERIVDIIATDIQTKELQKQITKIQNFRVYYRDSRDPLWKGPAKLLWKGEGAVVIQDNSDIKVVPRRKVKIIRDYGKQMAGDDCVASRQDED

As a reminder, the IC50 is the midpoint of a concentration-inhibition curve. One may read the CC50 as the concentration giving 50% cytotoxicity. Low readings indicate harm at low concentration, high ones better tolerance by the cells. Take `COc1c2c(c(O)c3ncc(F)cc13)C(=O)N(Cc1ccc(F)cc1)C2`: the values for the concentration for half-maximal inhibition (IC50) in assay [1] and in assay [2] were 7.2 nM and 1540 nM, respectively. In the assay on MT4, this molecule had a 50% cytotoxic concentration (CC50) of 33300 nM.

By EC50 is commonly meant the concentration giving half of the maximal effect. Lower therefore signals a more potent agent. In turn, `CN(C)S(=O)(=O)Oc1c2c(c(O)c3ncccc13)C(=O)N(Cc1ccc(F)cc1)C2` registered a CC50 in the assay with MT4 of 1400 nM. This molecule also displayed an EC50 in assay [2] of 7 nM.

As for `COc1c2c(c(O)c3ncn(Cc4ccccc4)c13)C(=O)N(Cc1ccc(F)cc1)C2`, the IC50 in assay [1] is 24000 nM; in assay [2] it was greater than 10000 nM. The molecule further came in with a CC50 with MT4 of 25000 nM.

In assay [1], `COc1c2c(c(O)c3nccnc13)C(=O)N(Cc1ccc(F)cc1)C2` yielded a concentration for half-maximal inhibition (IC50) of 210 nM. Also, in the assay with MT4, the midpoint of cytotoxicity, the CC50, lay at 87000 nM. The molecule also showed an EC50 in assay [2] of 3550 nM.

Molecule `CN(C)S(=O)(=O)Oc1c2c(c(O)c3nccnc13)C(=O)N(Cc1ccc(F)cc1)C2` had a half-maximal inhibitory concentration (IC50) in assay [1] of 33 nM. In the assay with MT4, this molecule gave a 50% cytotoxic concentration (CC50) of 2700 nM. In addition, in assay [2], the 50% effective concentration (EC50) came out at 540 nM.

In the assay with MT4, `COc1c2c(c(O)c3ncccc13)C(=O)N(Cc1ccc(F)cc1)C2` yielded a half-maximal cytotoxic concentration (CC50) of 5100 nM.

Molecule `COc1cnc2c(O)c3c(c(OC)c2c1)CN(Cc1ccc(F)cc1)C3=O` showed an IC50 in assay [1] of 93 nM. This molecule gave a half-maximal cytotoxic concentration (CC50) in the assay on MT4 of 2100 nM. Besides, in assay [2], the midpoint of the response, the EC50, lay at 70 nM.

Take `COc1c2c(c(O)c3c1NCCN3)C(=O)N(Cc1ccc(F)cc1)C2`: the half-maximal inhibitory concentration (IC50) is 850 nM in assay [1] and greater than 10000 nM in assay [2].

Source of the values: ChEMBL document CHEMBL1138967, “Design, synthesis, and biological evaluation of novel tricyclic HIV-1 integrase inhibitors by modification of its pyridine ring” (Bioorg Med Chem Lett, 2006).
